Reference: paper PMC6946680, “Modulation of brain cation-Cl^− cotransport via the SPAK kinase inhibitor ZT-1a” (Nature Communications, 2020)
Several values for one entry are separate records, joined by “and”; a condition that tells them apart may be missing. Identical values can stand only once.

How the values were obtained:
GST–[T233E]SPAK kinase = target: T1, GST–[T233E]SPAK kinase (Homo sapiens, UniProt Q9UEW8, T231E); assay: SPAK kinase assay with CATCHtide and IC50 determination; format: biochemical; settings: for ZT-1a vs SPAK+MO25, kinase activity / ZT-1a vs SPAK, kinase activity: Fig S7b; for ZT-1a vs SPAK, kinase activity: SPAK alone
T1 construct: made in house; host or cells: E. coli
Description: II. Experimental procedures
1. Reagents and General methods
Tissue culture reagents were from Life Technologies. P81 phosphocellulose paper was from Whatman […]
and [γ-32P]-ATP was from Perkin Elmer. […] Protein G […]
sepharose was from Amersham. DNA constructs used for transfection were purified from Escherichia coli DH5α using Qiagen or Invitrogen plasmid Maxi kits according to the manufacturer's protocol. All DNA constructs were verified by DNA sequencing.
2. Plasmids, protein expression and purification
DNA clones were from the Division of Signal Transduction Therapy (University of Dundee). The SPAK proteins were expressed in E. Coli and purified as described previously 1.
3. SPAK kinase assays and IC50 determination
SPAK kinase assays employed CATCHtide (cation chloride co-transporter peptide substrate). Peptide kinase assays, performed in triplicate, were set up in a total volume of 50 μl containing 0.5 μg GST– […]
cpm/pmol) and the indicated concentrations of inhibitor dissolved in DMSO. After incubation for 30 min at 30°C, reactions were terminated by spotting 40 μl of the reaction mix onto P81 phosphocellulose paper and immersion in 50 mM phosphoric acid. The papers were washed extensively and incorporation of [γ-32P]ATP into CATCHtide was quantified by Cerenkov counting.
IC50 values were calculated with GraphPad Prism using non-linear regression analysis.
4. Fluorescence polarization […]
concentrations between 0.00001 to 1 mM. Data points are the means of three determinations, with error […]
A Supplemental Fig. 7 Effects of increasing concentrations of ZT-1a on SPAK activity in the absence […]
the absence or presence of five-fold molar excess of wild-type MO25α. b Kinetic data determined for B ZT-1a in the absence or presence of five-fold molar excess of wild-type MO25α. Data are means of […]
presence of wild-type MO25α.

HEK-293 cells = assay: 86Rb+ uptake assay in empty-vector-transfected HEK-293 cells; format: cell-based, human; set-up: key: 86Rb+ uptake in CPM per mg protein; settings: Empty V + 1a (10 µM), replicates
Description: Thirty-six hours post transfection, cells were exposed for 30 min to either control isotonic conditions or hypotonic low [Cl^−] conditions (to activate the SPAK/OSR1 pathway), and then treated for an additional 30 min in the same conditions with the indicated ZT-1a concentrations in the presence of 1 mM ouabain and 0.1 mM bumetanide. Ten-minute ^86Rb^+ uptake values were quantified by scintillation counting, normalized per mg protein for each condition, and plotted for both isotonic and hypotonic conditions. ***p < 0.001; **p < 0.01; *p < 0.05; ns—nonsignificant [by one-way ANOVA with post hoc testing (n = 6, error bars represent the mean ± SEM)]. b ^86Rb^+ uptake assays in the presence of ZT-1a measure transport activity of NKCC1. […] Thirty-six hours post transfection, cells were exposed for 30 min to either control isotonic conditions or hypotonic low [Cl^−] conditions (to activate the SPAK/OSR1 pathway), and then treated in the same conditions for an additional 30 min with 10 µM ZT-1a or 0.1 mM bumetanide (Bum) in the presence of 1 mM ouabain (Na^+/K^+-ATPase inhibitor). ^86Rb^+ uptake was allowed to proceed for 10 min and was then quantified by scintillation counting. ^86Rb^+ uptake CPMs were normalized per mg protein and plotted for both isotonic and hypotonic conditions. […] Thirty-six hours post transfection, cells were exposed for 30 min to either control isotonic conditions or hypotonic low [Cl^−] conditions (to activate the SPAK/OSR1 pathway), and then treated for an additional 30 min in the same conditions with the indicated ZT-1a concentrations in the presence of 1 mM ouabain. Ten-minute ^86Rb^+ uptake values were quantified by scintillation counting, normalized per mg protein for each condition, and plotted for both isotonic and hypotonic conditions. ***p < 0.001; **p < 0.01; *p < 0.05; ns—nonsignificant [by one-way ANOVA with post hoc testing (n = 6, error bars represent the mean ± SEM)].
This stimulating medium was then removed and replaced with isotonic medium containing inhibitors plus 2 µCi/ml ^86Rb^+. After incubation for 10 min at 37 °C, cells were rapidly washed three times with the respective ice-cold nonradioactive medium. Washed cells were lysed in 300 µl of ice-cold lysis buffer and ^86Rb^+ uptake was quantitated by liquid scintillation counting (PerkinElmer).

pNKCC1 (pThr203/207/212) = assay: Immunoblot of pNKCC1 in ischemic mouse brain membrane fractions; settings: for NKCC1 / Na-K pumb / pThr203/207/212 / NKCC1: Fig 8, individual samples

Compound: Cc1cc(C(C#N)c2ccc(Cl)cc2)c(Cl)cc1NC(=O)c1cc(Cl)ccc1O (stereo not shown) [ZT-1a, 5-chloro-N-(5-chloro-4-((4-chlorophenyl)(cyano)methyl)-2-methylphenyl)-2-hydroxybenzamide]
- ZT-1a vs SPAK+MO25, kinase activity (GST–[T233E]SPAK kinase; ZT-1a 0.0001 uM): 393641 C.P.M and 402385 C.P.M and 384718 C.P.M
- ZT-1a vs SPAK+MO25, kinase activity (GST–[T233E]SPAK kinase; ZT-1a 0.001 uM): 392612 C.P.M and 367664 C.P.M and 337143 C.P.M
- ZT-1a vs SPAK+MO25, kinase activity (GST–[T233E]SPAK kinase; ZT-1a 0.003 uM): 363431 C.P.M and 388438 C.P.M and 371694 C.P.M
- ZT-1a vs SPAK+MO25, kinase activity (GST–[T233E]SPAK kinase; ZT-1a 0.01 uM): 359080 C.P.M and 382836 C.P.M and 362174 C.P.M
- ZT-1a vs SPAK+MO25, kinase activity (GST–[T233E]SPAK kinase; ZT-1a 0.03 uM): 408327 C.P.M and 384102 C.P.M and 373519 C.P.M
- ZT-1a vs SPAK+MO25, kinase activity (GST–[T233E]SPAK kinase; ZT-1a 0.1 uM): 381538 C.P.M and 398205 C.P.M and 371203 C.P.M
- ZT-1a vs SPAK+MO25, kinase activity (GST–[T233E]SPAK kinase; ZT-1a 0.3 uM): 371591 C.P.M and 394205 C.P.M and 361553 C.P.M
- ZT-1a vs SPAK+MO25, kinase activity (GST–[T233E]SPAK kinase; ZT-1a 1 uM): 365869 C.P.M and 359432 C.P.M and 371032 C.P.M
- ZT-1a vs SPAK+MO25, kinase activity (GST–[T233E]SPAK kinase; ZT-1a 3 uM): 354403 C.P.M and 355755 C.P.M and 331937 C.P.M
- ZT-1a vs SPAK+MO25, kinase activity (GST–[T233E]SPAK kinase; ZT-1a 10 uM): 325521 C.P.M and 299490 C.P.M and 282196 C.P.M
- ZT-1a vs SPAK+MO25, kinase activity (GST–[T233E]SPAK kinase; ZT-1a 100 uM): 119789 C.P.M and 97606 C.P.M and 83035 C.P.M
- ZT-1a vs SPAK+MO25, kinase activity (GST–[T233E]SPAK kinase; ZT-1a 1000 uM): 31455 C.P.M and 51772 C.P.M and 49172 C.P.M
- ZT-1a vs SPAK, kinase activity (GST–[T233E]SPAK kinase; ZT-1a 1e-5 uM): 48785 C.P.M and 47183 C.P.M and 49610 C.P.M
- ZT-1a vs SPAK, kinase activity (GST–[T233E]SPAK kinase; ZT-1a 0.0001 uM): 46475 C.P.M and 45108 C.P.M and 47685 C.P.M
- ZT-1a vs SPAK, kinase activity (GST–[T233E]SPAK kinase; ZT-1a 0.001 uM): 47080 C.P.M and 46113 C.P.M and 46420 C.P.M
- ZT-1a vs SPAK, kinase activity (GST–[T233E]SPAK kinase; ZT-1a 0.003 uM): 44660 C.P.M and 45821 C.P.M and 45595 C.P.M
- ZT-1a vs SPAK, kinase activity (GST–[T233E]SPAK kinase; ZT-1a 0.01 uM): 45890 C.P.M and 44094 C.P.M and 44440 C.P.M
- ZT-1a vs SPAK, kinase activity (GST–[T233E]SPAK kinase; ZT-1a 0.03 uM): 44825 C.P.M and 43187 C.P.M and 44890 C.P.M
- ZT-1a vs SPAK, kinase activity (GST–[T233E]SPAK kinase; ZT-1a 0.1 uM): 44275 C.P.M and 42127 C.P.M and 44780 C.P.M
- ZT-1a vs SPAK, kinase activity (GST–[T233E]SPAK kinase; ZT-1a 0.3 uM): 44230 C.P.M and 41993 C.P.M and 43780 C.P.M
- ZT-1a vs SPAK, kinase activity (GST–[T233E]SPAK kinase; ZT-1a 1 uM): 43840 C.P.M and 42097 C.P.M and 44510 C.P.M
- ZT-1a vs SPAK, kinase activity (GST–[T233E]SPAK kinase; ZT-1a 3 uM): 41230 C.P.M and 39714 C.P.M and 40580 C.P.M
- ZT-1a vs SPAK, kinase activity (GST–[T233E]SPAK kinase; ZT-1a 10 uM): 29580 C.P.M and 31008 C.P.M and 33855 C.P.M
- ZT-1a vs SPAK, kinase activity (GST–[T233E]SPAK kinase; ZT-1a 100 uM): 14995 C.P.M and 17307 C.P.M and 16430 C.P.M
- ZT-1a vs SPAK, kinase activity (GST–[T233E]SPAK kinase; ZT-1a 1000 uM): 5830 C.P.M and 7520 C.P.M and 9285 C.P.M
- IC50 (GST–[T233E]SPAK kinase; absence of wild-type MO25α): 40.5 µM
- IC50 (GST–[T233E]SPAK kinase; presence of five-fold molar excess of wild-type MO25α): 41.3 µM
- 86Rb+ uptake (HEK-293 cells; Fig 3a, Hypotonic low Cl-, ouabain + bumetanide): 508.8 and 600.6 and 529.6 and 455.1 and 564.1 and 478.5
- 86Rb+ uptake (HEK-293 cells; Fig 3a, Isotonic control, ouabain + bumetanide): 1279.7 and 1082.2 and 1111.5 and 1436.1 and 1321.4 and 1109.8
- 86Rb+ uptake (HEK-293 cells; Fig 3b, Hypotonic low Cl-, ouabain): 1181.7 and 899.6 and 1029.4 and 1120.4 and 1269.1 and 946.3
- 86Rb+ uptake (HEK-293 cells; Fig 3b, Isotonic control, ouabain): 905.2 and 735.8 and 874.1 and 801.5 and 957.4 and 886.4
- NKCC1 / Na-K pumb (pNKCC1 (pThr203/207/212); CL hemisphere): 1.613 and 1.481 and 1.6 and 1.576 and 1.424 and 1.642
- pThr203/207/212 / NKCC1 (pNKCC1 (pThr203/207/212); CL hemisphere): 0.451 and 0.437 and 0.265 and 0.378 and 0.429 and 0.303
- NKCC1 / Na-K pumb (pNKCC1 (pThr203/207/212); IL hemisphere): 1.43 and 1.528 and 1.481 and 1.417 and 1.587 and 1.394
- pThr203/207/212 / NKCC1 (pNKCC1 (pThr203/207/212); IL hemisphere): 0.461 and 0.418 and 0.385 and 0.452 and 0.396 and 0.372
- reduction of ischemia-induced elevation of pNKCC1 (pNKCC1 (pThr203/207/212); compared with vehicle-control mice): 55–65%
- ischemia-induced increase of pNKCC1 (pNKCC1 (pThr203/207/212); post-stroke ZT-1a 5 mg/kg, 24 h reperfusion): prevented
